Test results from PubChem BioAssay AID192 (DTP/NCI, 2004).
“And” between values parts separate entries of the source, which are not always exact repeats. Equal entries are not always repeated. Toxic doses and inconclusive results are not listed. How the source made its calls: active means survival T/C of 150% or more; inactive means T/C below 125% in these data. Square brackets hold non-standard residues; d marks the D form. Peptide text beside a SMILES is read from it. ξ: configuration not given here. ξF = NC(Cc1ccccc1)C(=O)O

Test system: BDF1 mice, B16 melanoma ip, median survival T/C
Assay: NCI In Vivo Anticancer Drug Screen. Data for tumor model B16 Melanoma (intraperitoneal) in B6D2F1 (BDF1) mice
Conditions: endpoint: median survival time, higher = longer survival
Outline: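 Vehicle-treated animals serve as the reference (C); treated animals (T) are scored for survival or tumor size after tumor transplantation.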

[1] = dose: 50.0 mg/kg/injection, schedule: Q01DX009 (ip), vehicle: saline with Tween-80
[2] = dose: 100.0 mg/kg/injection, schedule: Q01DX009 (ip), vehicle: saline with Tween-80
[3] = dose: 200.0 mg/kg/injection, schedule: Q01DX009 (ip), vehicle: saline with Tween-80
[4] = dose: 400.0 mg/kg/injection, schedule: Q01DX009 (ip), vehicle: saline with Tween-80
[5] = dose: 12.5 mg/kg/injection, schedule: Q01DX009 (ip), vehicle: saline
[6] = dose: 25.0 mg/kg/injection, schedule: Q01DX009 (ip), vehicle: saline
[7] = dose: 50.0 mg/kg/injection, schedule: Q01DX009 (ip), vehicle: saline
[8] = dose: 100.0 mg/kg/injection, schedule: Q01DX009 (ip), vehicle: saline
[9] = dose: 200.0 mg/kg/injection, schedule: Q01DX009 (ip), vehicle: saline
[10] = dose: 12.5 mg/kg/injection, schedule: Q01DX009 (ip), vehicle: saline with Tween-80
[11] = dose: 25.0 mg/kg/injection, schedule: Q01DX009 (ip), vehicle: saline with Tween-80
[12] = dose: 100.0 mg/kg/injection, schedule: Q01DX009 (ip), vehicle: Klucel (hydroxypropylcellulose) (HPC)
[13] = dose: 200.0 mg/kg/injection, schedule: Q01DX009 (ip), vehicle: Klucel (hydroxypropylcellulose) (HPC)
[14] = dose: 400.0 mg/kg/injection, schedule: Q01DX009 (ip), vehicle: Klucel (hydroxypropylcellulose) (HPC)
[15] = dose: 6.25 mg/kg/injection, schedule: Q01DX009 (ip), vehicle: saline with Tween-80
[16] = dose: 6.25 mg/kg/injection, schedule: Q01DX009 (ip), vehicle: Klucel (hydroxypropylcellulose) (HPC)
[17] = dose: 12.5 mg/kg/injection, schedule: Q01DX009 (ip), vehicle: Klucel (hydroxypropylcellulose) (HPC)
[18] = dose: 25.0 mg/kg/injection, schedule: Q01DX009 (ip), vehicle: Klucel (hydroxypropylcellulose) (HPC)
[19] = dose: 100.0 mg/kg/injection, schedule: Q04DX003 (ip), vehicle: Klucel (hydroxypropylcellulose) (HPC)
[20] = dose: 200.0 mg/kg/injection, schedule: Q04DX003 (ip), vehicle: Klucel (hydroxypropylcellulose) (HPC)
[21] = dose: 400.0 mg/kg/injection, schedule: Q04DX003 (ip), vehicle: Klucel (hydroxypropylcellulose) (HPC)

Measured: T/C

O=C1O/C(=C\c2ccccc2)c2c(Br)c(Br)c(Br)c(Br)c21
inactive: [1] 112 % of control | [2] 107 % of control | [3] 112 % of control | [4] 112 % of control

NNc1ncnc2nc[nH]c12
inactive: [5] 108 % of control | [6] 120 % of control | [7] 100 % of control

NCC(=O)NCC(=O)NC(Cc1ccccc1)C(=O)O (stereo not drawn) (H-Gly-Gly-[ξF]-OH)
inactive: [8] 90 % of control | dose: 100.0 mg/kg/injection, schedule: Q04DX003 (ip), vehicle: saline 92 % of control | [9] 90 % of control | dose: 200.0 mg/kg/injection, schedule: Q04DX003 (ip), vehicle: saline 97 % of control | dose: 400.0 mg/kg/injection, schedule: Q01DX009 (ip), vehicle: saline 93 % of control | dose: 400.0 mg/kg/injection, schedule: Q04DX003 (ip), vehicle: saline 90 % of control

CN1CCN(Cc2nc3cccc4c3c([n+]2[O-])-c2ccccc2-4)CC1
inactive: [10] 101 % of control | [11] 95 % of control | [1] 105 % of control | [2] 112 % of control | [3] 116 % of control

Cc1ccc(N2CSC(=S)N(c3ccc(C)cc3)C2)cc1
inactive: [12] 86 % of control and 109 % of control | [13] 86 % of control and 109 % of control | [14] 102 % of control

CCC1(c2ccccc2)SC(=O)NC1=O (stereo not drawn)
inactive: [1] 98 % of control | [2] 104 % of control

CC(=O)C(N)CCC(=O)O (stereo not drawn)
inactive: [7] 105 % of control | [8] 113 % of control | [9] 97 % of control

Oc1c(CNCCCN2CCCC2)cc(Cl)c2cccnc12
inactive: [5] 94 % of control and 95 % of control and 106 % of control | [6] 93 % of control and 98 % of control and 102 % of control | [7] 94 % of control and 97 % of control and 98 % of control | [8] 103 % of control and 108 % of control and 109 % of control

CCCNCCCN
inactive: [5] 102 % of control | [6] 105 % of control | [7] 89 % of control

CCNNC(=O)[C@@H]1[C@H](c2cc(OC)c(OC)c(OC)c2)c2cc3c(cc2[C@H](O)[C@H]1CO)OCO3
inactive: [1] 94 % of control | [2] 86 % of control

COc1cc(-c2ccc(Nc3ccccc3C(=O)O)c(OC)c2)ccc1N
inactive: [11] 105 % of control | [1] 104 % of control

COc1cc(O)c2c(c1)Cc1cc(C)cc(O)c1C2=O
inactive: [15] 93 % of control | [10] 98 % of control | [11] 98 % of control

CC1(C)C=C(C(Br)c2ccc(Cl)cc2)C(=O)c2ccccc21 (stereo not drawn)
inactive: [1] 103 % of control | [2] 106 % of control | [3] 99 % of control | [4] 97 % of control

CC(C)(C)C(=O)CC(=O)C(F)(F)C(F)(F)C(F)(F)F.[Ag]
inactive: [15] 97 % of control | [10] 94 % of control | [11] 86 % of control

O=S(=O)(F)c1cc(C[P+](c2ccccc2)(c2ccccc2)c2ccccc2)ccc1Cl
inactive: dose: 0.1 mg/kg/injection, schedule: Q01DX009 (ip), vehicle: saline with Tween-80 105 % of control | dose: 0.1 mg/kg/injection, schedule: Q04DX003 (ip), vehicle: saline with Tween-80 112 % of control | dose: 0.2 mg/kg/injection, schedule: Q01DX009 (ip), vehicle: saline with Tween-80 90 % of control | dose: 0.2 mg/kg/injection, schedule: Q04DX003 (ip), vehicle: saline with Tween-80 110 % of control | dose: 0.4 mg/kg/injection, schedule: Q01DX009 (ip), vehicle: saline with Tween-80 100 % of control | dose: 0.4 mg/kg/injection, schedule: Q04DX003 (ip), vehicle: saline with Tween-80 110 % of control | dose: 3.0 mg/kg/injection, schedule: Q04DX003 (ip), vehicle: saline with Tween-80 86 % of control | dose: 12.5 mg/kg/injection, schedule: Q04DX003 (ip), vehicle: saline with Tween-80 86 % of control

CC(=O)[O][Pb]([O]C(C)=O)([c]1ccccc1)[c]1ccccc1
inactive: [16] 98 % of control | [17] 99 % of control | [18] 103 % of control | dose: 50.0 mg/kg/injection, schedule: Q01DX009 (ip), vehicle: Klucel (hydroxypropylcellulose) (HPC) 95 % of control

C[C@H]1C[C@@H]2[C@H]([C@@H](O)C[C@@]3(C)[C@H]2CC[C@]3(O)C(=O)CO)[C@@]2(C)C=CC(=O)C=C12
inactive: [16] 115 % of control | [17] 115 % of control | [18] 117 % of control | [12] 116 % of control | [13] 112 % of control

ClCCOCOCCCl
inactive: dose: 20.0 mg/kg/injection, schedule: Q04DX003 (ip), vehicle: Klucel (hydroxypropylcellulose) (HPC) 101 % of control | dose: 40.0 mg/kg/injection, schedule: Q04DX003 (ip), vehicle: Klucel (hydroxypropylcellulose) (HPC) 89 % of control | dose: 80.0 mg/kg/injection, schedule: Q04DX003 (ip), vehicle: Klucel (hydroxypropylcellulose) (HPC) 102 % of control

Cc1c(Cl)cccc1NS(=O)(=O)c1cccc([N+](=O)[O-])c1
inactive: [1] 100 % of control | [2] 91 % of control | [3] 98 % of control

O=S(=O)(c1ccc(Cl)cc1)c1ccc(Cl)cc1
inactive: dose: 100.0 mg/kg/injection, schedule: Q04DX003 (ip), vehicle: saline with Tween-80 100 % of control | dose: 200.0 mg/kg/injection, schedule: Q04DX003 (ip), vehicle: saline with Tween-80 97 % of control | dose: 400.0 mg/kg/injection, schedule: Q04DX003 (ip), vehicle: saline with Tween-80 100 % of control

COc1ccc(Cl)cc1NC(=O)C(Br)C(Br)C(=O)O (stereo not drawn)
inactive: [10] 102 % of control | [11] 105 % of control | [1] 95 % of control | [2] 89 % of control | [3] 91 % of control

CCOC(=O)C1CN(S(=O)(=O)c2ccc(C)cc2)c2ccccc2C(=O)C1/C(=C/C(=O)OC)C(=O)OC (stereo not drawn)
inactive: [19] 92 % of control | [20] 90 % of control | [21] 88 % of control

CCN(CC)CC#CCCCCN(CC)CC
inactive: dose: 3.13 mg/kg/injection, schedule: Q01DX009 (ip), vehicle: saline 95 % of control | dose: 6.25 mg/kg/injection, schedule: Q01DX009 (ip), vehicle: saline 97 % of control | [5] 90 % of control | [7] 89 % of control

COc1ccc(NC(=O)Oc2c(C(C)C)cccc2C(C)C)cc1
inactive: [12] 96 % of control | [19] 110 % of control | [13] 96 % of control | [20] 103 % of control | [14] 89 % of control | [21] 103 % of control

CC(=O)C(C)C(C)=O
inactive: [2] 88 % of control | [3] 90 % of control | [4] 91 % of control

COc1cc2c(c(OC)c1OC)-c1cc3c(cc1[C@@H](OC(C)=O)[C@@H]1COC(=O)[C@H]1C2)OCO3
inactive: dose: 1.25 mg/kg/injection, schedule: Q01DX009 (ip), vehicle: Klucel (hydroxypropylcellulose) (HPC) 104 % of control | dose: 2.5 mg/kg/injection, schedule: Q01DX009 (ip), vehicle: Klucel (hydroxypropylcellulose) (HPC) 94 % of control | dose: 5.0 mg/kg/injection, schedule: Q01DX009 (ip), vehicle: Klucel (hydroxypropylcellulose) (HPC) 104 % of control | dose: 10.0 mg/kg/injection, schedule: Q01DX009 (ip), vehicle: Klucel (hydroxypropylcellulose) (HPC) 102 % of control
